Test results reported in paper PMC8018465, “Antimicrobial activities of a small molecule compound II-6s against oral streptococci” (Journal of Oral Microbiology, 2021).
In brackets after ≈: the same amount, converted by molar mass. Like-named read-outs stand apart in the source and are kept apart here.

Assays:
[1] = test system: S. gordonii; test: Bacterial susceptibility assay (microdilution, planktonic); type: cell-based, Streptococcus gordonii DL1; details: Streptococcus gordonii
Procedure: (§1) Streptococcus mutans UA159, Streptococcus gordonii DL1 and Streptococcus sanguinis ATCC10556 were obtained from the State Key Laboratory of Oral Diseases (Sichuan University, Chengdu, China). All strains were routinely cultured in brain heart infusion broth (BHI; Difco, Sparks, MD) under anaerobic conditions (5% CO2) at 37°C. For biofilm formation, bacteria were cultured in BHI broth supplied with 1% sucrose (designated BHIS).
(§2) The minimum inhibitory concentration (MIC) and minimum bactericidal concentration (MBC) of II-6s against S. mutans, S. gordonii, and S. sanguinis were measured by a microdilution method in BHI as described previously. The bacterial inoculum for the experiment was adjusted to 1 × 10^7 colony-forming units (CFU)/ml for S. mutans, S. gordonii, and S. sanguinis based on the optical density at 600 nm (OD600) versus a CFU/ml graph of each bacterium. Bacterial suspension was added to 96-well microtiter plates which were supplemented with serially diluted concentrations of II-6s ranging from 0.98 to 500 μg/ml. Each plate also included CHX ranging from 0.98 to 500 μg/ml as a positive control, test bacteria and BHI broth as a negative control, BHI broth containing equivalent DMSO (0.5% to 0.001%, ν/ν) as a solvent control and a blank control. […] The lowest concentration of the test solutions that allowed no visible growth on a BHI agar plate was taken as MBC. The experiment was performed in triplicates and repeated at least three times.

[2] = test system: S. mutans; test: as above; type: cell-based, Streptococcus mutans UA159; details: Streptococcus mutans
Procedure: as §1, §2

[3] = test system: S. gordonii biofilm; test: Biofilm susceptibility assay (crystal violet); type: cell-based, Streptococcus gordonii DL1; details: 24 h; for MBIC: S. gordonii biofilm formation, at least 90% inhibition; for MBRC: S. gordonii one-day biofilm, at least 90% reduction
Procedure: Streptococcus mutans UA159, Streptococcus gordonii DL1 and Streptococcus sanguinis ATCC10556 were obtained from the State Key Laboratory of Oral Diseases (Sichuan University, Chengdu, China). All strains were routinely cultured in brain heart infusion broth (BHI; Difco, Sparks, MD) under anaerobic conditions (5% CO2) at 37°C. For biofilm formation, bacteria were cultured in BHI broth supplied with 1% sucrose (designated BHIS). The effect of II-6s on S. mutans, S. gordonii, and S. sanguinis biofilm was examined by the microdilution method described previously. S. mutans, S. gordonii, and S. sanguinis (1 × 10^7 CFU/ml) respectively, were cultured in BHIS broth and II-6s (0.98 to 500 μg/ml) in 96-well microtiter plates for 24 h. A parallel study was also performed with BHIS as a negative control. After incubation, the culture supernatant and agent were removed, and each well was gently washed three times with phosphate-buffered saline (PBS), then fixed the adherent biofilm was fixed with methanol for 15 min, and stained with 0.1% (wt/vol) crystal violet (Sigma) for 5 min. The excess crystal violet stain in each well was rinsed away with PBS until the blank control wells were colorless. Finally, 200 μl of 95% ethanol was added to each well to dissolve the crystal violet attached to the biofilm. The plate was shaken at room temperature for 30 min, and the absorbance at 595 nm was recorded. To examine the effects of II-6s on mature biofilm, bacterial suspensions were inoculated into a 96-well microtiter plate containing BHIS and incubated at 37°C for 24 h. After biofilm developed, the supernatant from each well was decanted and planktonic cells were removed by washing with sterile PBS. Fresh BHI broth containing II-6s (0.98 to 500 μg/ml) was added to the one-day biofilm, and the plate was further incubated for 24 h. The control wells contained BHIS broth without II-6s. Similarly, the biofilm was fixed, stained, washed, and quantified as described above. […] The experiment was performed in triplicates and repeated at least three times.

[4] = S. gordonii, planktonic, BHI medium
[5] = S. mutans, planktonic, BHI medium

Row | Structure (SMILES) | MBC [1, 4] [µg/mL] | MIC ([1]; S. gordonii, planktonic, BHI medium, read-out: MIC) [µg/mL] | MBC [2, 5] [µg/mL] | MIC ([2]; S. mutans, planktonic, BHI medium, read-out: MIC) [µg/mL] | MBIC [3] [µg/mL] | MBRC [3] [µg/mL] | MIC [1] [µg/mL] | MIC [2] [µg/mL]
1 | [H]/N=C(\N/C(=N/[H])NCCCCCCNC(=N)NC(=N)Nc1ccc(Cl)cc1)Nc1ccc(Cl)cc1 [CHX, Chlorhexidine digluconate, reference compound] | 7.81 | 3.91 | 7.81 | 1.95 | 3.91 | 15.63 | – | –
2 | CC(C)(Cc1ccc2ccccc2c1)NC[C@H](O)CNc1cc(C(F)(F)F)cc(C(F)(F)F)c1 [II-6s, (S)-1-((3,5-bis(trifluoromethyl)phenyl)amino)-3-((2-methyl-1-(naphthalen-2-yl)propan-2-yl)amino)propan-2-ol] | 15.6 (≈ 32.3 µM) | – | 15.6 (≈ 32.3 µM) | – | 3.91 | 3.91 | 3.91 (≈ 8.07 µM) | 3.91 (≈ 8.07 µM)
